IC50 and melting point data for 21 molecules are collected here from patent US7601716B2, “Pyridopyrazines and derivatives thereof as ALK and c-Met inhibitors” (Cephalon, Inc., priority 2006, dated 2009).

The target of series [1] is T1, c-Met (cytoplasmic domain) (Homo sapiens, UniProt P08581).
T1 construct: Reactions were initiated with 30 ng/mL c-Met (cytoplasmic domain, Invitrogen Corporation #PV3143); purchased Invitrogen Corporation PV3143
Kind of series: c-Met Kinase Assay (ELISA/TRF, PLC-γ substrate). Conditions: 3 μM ATP (Km level); read-out: c-Met Kinase Inhibition (IC50). The format is biochemical. In a few lines:
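Readout is TRF of europium anti-phosphotyrosine (PT66) bound to GST–PLC-γ substrate coated at 10 μg/mL, after a 15 min, 37 °C reaction started with 30 ng/mL c-Met cytoplasmic domain. Percent inhibition plotted against log compound concentration and fitted (variable slope) for IC50.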
On the technique in general: ELISA stands for enzyme-linked immunosorbent assay.

In series [2] the target is baculovirus-expressed ALK (Homo sapiens, UniProt Q9UM73). Kind of series: ALK Kinase Assay (ELISA/TRF, PLC-γ substrate). Further: 1 µM ATP (Km level). The format is biochemical. To be noted: read-out: ALK Kinase Inhibition (IC50). In short, it runs like this: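 ALK at 30 ng/ml phosphorylated plate-bound PLC-γ–GST fusion (coated from 10 μg/mL) during 15 minutes at 37° C. Product was detected with Eu-N1 PT66 anti-phosphotyrosine antibody and measured by time-resolved fluorescence.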
baculovirus-expressed ALK, sequence (Q9UM73 19-1620): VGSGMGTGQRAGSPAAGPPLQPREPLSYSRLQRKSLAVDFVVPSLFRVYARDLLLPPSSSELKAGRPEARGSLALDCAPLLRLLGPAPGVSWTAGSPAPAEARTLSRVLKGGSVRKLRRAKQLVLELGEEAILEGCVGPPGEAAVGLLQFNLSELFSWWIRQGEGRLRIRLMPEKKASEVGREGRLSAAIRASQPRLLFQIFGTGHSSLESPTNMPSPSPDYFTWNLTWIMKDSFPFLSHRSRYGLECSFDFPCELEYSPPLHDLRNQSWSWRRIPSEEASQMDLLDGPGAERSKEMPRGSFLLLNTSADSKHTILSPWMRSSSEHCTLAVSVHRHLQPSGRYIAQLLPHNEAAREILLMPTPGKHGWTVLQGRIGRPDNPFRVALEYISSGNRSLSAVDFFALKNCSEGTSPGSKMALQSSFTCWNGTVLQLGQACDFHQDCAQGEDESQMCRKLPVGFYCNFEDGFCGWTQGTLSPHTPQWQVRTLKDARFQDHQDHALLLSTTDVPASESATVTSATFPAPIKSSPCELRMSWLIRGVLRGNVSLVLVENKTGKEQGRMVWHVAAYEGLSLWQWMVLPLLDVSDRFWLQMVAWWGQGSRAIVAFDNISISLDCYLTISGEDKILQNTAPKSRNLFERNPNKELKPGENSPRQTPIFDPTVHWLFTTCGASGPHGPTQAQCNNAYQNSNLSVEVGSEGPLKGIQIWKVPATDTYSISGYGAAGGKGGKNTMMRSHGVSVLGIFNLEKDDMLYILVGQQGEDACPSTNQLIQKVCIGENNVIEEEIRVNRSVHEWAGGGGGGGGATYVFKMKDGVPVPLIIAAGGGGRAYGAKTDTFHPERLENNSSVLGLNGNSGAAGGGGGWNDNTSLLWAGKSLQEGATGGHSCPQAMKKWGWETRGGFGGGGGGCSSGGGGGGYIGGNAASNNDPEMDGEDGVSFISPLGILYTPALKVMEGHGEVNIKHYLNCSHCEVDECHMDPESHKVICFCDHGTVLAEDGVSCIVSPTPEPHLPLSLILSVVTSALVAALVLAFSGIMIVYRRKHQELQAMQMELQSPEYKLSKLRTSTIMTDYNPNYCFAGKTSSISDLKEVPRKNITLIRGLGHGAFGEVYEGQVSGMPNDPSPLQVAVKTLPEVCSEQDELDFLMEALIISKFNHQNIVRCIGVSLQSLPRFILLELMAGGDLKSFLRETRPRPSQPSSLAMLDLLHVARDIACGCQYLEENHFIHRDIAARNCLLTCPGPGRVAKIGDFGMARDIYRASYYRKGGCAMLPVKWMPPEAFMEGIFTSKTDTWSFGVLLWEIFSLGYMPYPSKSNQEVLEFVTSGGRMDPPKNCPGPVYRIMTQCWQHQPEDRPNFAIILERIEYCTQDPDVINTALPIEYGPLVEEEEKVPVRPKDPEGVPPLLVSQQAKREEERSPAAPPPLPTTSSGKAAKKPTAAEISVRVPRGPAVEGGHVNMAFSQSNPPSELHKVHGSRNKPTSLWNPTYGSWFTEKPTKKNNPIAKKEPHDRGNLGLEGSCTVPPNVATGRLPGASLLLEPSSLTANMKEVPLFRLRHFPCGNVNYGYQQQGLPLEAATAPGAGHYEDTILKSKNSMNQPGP

T1 sequence (P08581 956-1390 limits assumed): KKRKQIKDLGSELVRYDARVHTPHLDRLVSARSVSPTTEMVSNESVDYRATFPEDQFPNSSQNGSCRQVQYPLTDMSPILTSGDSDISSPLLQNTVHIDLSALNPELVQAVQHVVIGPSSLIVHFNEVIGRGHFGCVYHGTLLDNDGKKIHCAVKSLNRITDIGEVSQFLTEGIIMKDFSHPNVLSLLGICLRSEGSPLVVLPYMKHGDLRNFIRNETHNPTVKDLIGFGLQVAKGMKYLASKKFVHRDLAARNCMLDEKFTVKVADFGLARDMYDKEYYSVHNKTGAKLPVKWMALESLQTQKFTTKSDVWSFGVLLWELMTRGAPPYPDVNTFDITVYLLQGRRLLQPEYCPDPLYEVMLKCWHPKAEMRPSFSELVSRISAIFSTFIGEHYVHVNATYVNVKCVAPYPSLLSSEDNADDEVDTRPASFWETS

As usually defined, the IC50 is the concentration that inhibits the measured activity by half. For orientation: melting point means the temperature, or range, at which the solid turns liquid. Consider `O=C1CNc2ncc(-c3cccnc3)cc2N1Cc1ccccc1` [Example 11, 1-Benzyl-7-pyridin-3-yl-3,4-dihydro-1H-pyrido[2,3-b]pyrazin-2-one], for which the melting point is 58 °C. For the same molecule, in series [1], the IC50 fell in the range of 10 to 100 µM. Further, the IC50 in series [2] was 10 to 100 µM.
For the molecule `CN(C)CCCCCCNC(=O)c1ccc(-c2cnc3c(c2)N(Cc2ccccc2)C(=O)CN3)cc1` [Example 16, 4-(1-benzyl-2-oxo-1,2,3,4-tetrahydropyrido[2,3-b]pyrazin-7-yl)-N-(6-dimethylaminohexyl)benzamide], the melting point is > 200 °C. For the same molecule, the IC50 in series [1] fell in the range of 10 to 100 µM. Further, the half-maximal inhibitory concentration (IC50) in series [2] fell in the range of 1 to 10 µM.
Turning to `CC(=O)c1ccc(-c2cnc3c(c2)N(Cc2ccccc2)C(=O)CN3)cc1` [Example 21, 7-(4-Acetylphenyl)-1-benzyl-3,4-dihydro-1H-pyrido[2,3-b]pyrazin-2-one], the melting point amounted to 200 °C. Further, in series [1], the IC50 was > 100 µM. In series [2], the IC50 fell in the range of 10 to 100 µM.
Turning to `NC(=O)c1ccc(-c2cnc3c(c2)N(Cc2ccccc2)C(=O)CN3)cc1` [Example 23, 4-(1-Benzyl-2-oxo-1,2,3,4-tetrahydropyrido[2,3-b]pyrazin-7-yl)benzamide], the melting point is > 200 °C. Besides, the IC50 in series [1] lay within 10 to 100 µM. Also, in series [2], the IC50 lay in the range of 1 to 10 µM.
The molecule `CCNC(=O)c1ccc(-c2cnc3c(c2)N(Cc2ccccc2)C(=O)CN3)cc1` [Example 27, 4-(1-Benzyl-2-oxo-1,2,3,4-tetrahydropyrido[2,3-b]pyrazin-7-yl)-N-ethyl-benzamide] returned a melting point of 195 °C. In addition, the IC50 in series [1] is 10 to 100 µM. Further, the IC50 in series [2] was in the range of 10 to 100 µM.
For the molecule `N#Cc1ccc(-c2cnc3c(c2)N(Cc2ccccc2)C(=O)CN3)cn1` [Example 28, 5-(1-Benzyl-2-oxo-1,2,3,4-tetrahydropyrido[2,3-b]pyrazin-7-yl)pyridine-2-carbonitrile], the melting point was > 200 °C. Besides, the IC50 in series [1] was > 100 µM. The IC50 in series [2] is > 100 µM.
The molecule `COC(=O)c1cccc(-c2cnc3c(c2)N(Cc2ccccc2)C(=O)CN3)c1` [Example 30, 3-(1-Benzyl-2-oxo-1,2,3,4-tetrahydropyrido[2,3-b]pyrazin-7-yl)benzoic acid methyl ester] came in with a melting point of 211 °C. Besides, in series [1], the IC50 fell in the range of 10 to 100 µM. The IC50 in series [2] is 1 to 10 µM.
Consider `Ic1cnc2c(c1)N(Cc1ccccc1)CCN2` [Example 33, 1-Benzyl-7-iodo-1,2,3,4-tetrahydropyrido[2,3-b]pyrazine], for which the melting point lay within 147 to 148 °C. Also, the IC50 in series [1] was > 100 µM. For the same molecule, the IC50 in series [2] was 10 to 100 µM.
For `CCOC(=O)c1ccc(-c2cnc3c(c2)N(Cc2ccccc2)CCN3)cc1` [Example 35, 4-(1-Benzyl-1,2,3,4-tetrahydropyrido[2,3-b]pyrazin-7-yl)benzoic acid ethyl ester] the same measures were 178 to 179 °C, > 100 µM and 1 to 10 µM.
In the case of `O=C(O)c1ccc(-c2cnc3c(c2)N(Cc2ccccc2)CCN3)cc1` [Example 36, 4-(1-Benzyl-1,2,3,4-tetrahydropyrido[2,3-b]pyrazin-7-yl)benzoic acid], the melting point is > 300 °C. Also, the IC50 in series [1] lay within 1 to 10 µM. In series [2], the IC50 was 0.1 to 1 µM.
Molecule `CN1CCN(C(=O)c2ccc(-c3cnc4c(c3)N(Cc3ccccc3)CCN4)cc2)CC1` [Example 37, [4-(1-Benzyl-1,2,3,4-tetrahydropyrido[2,3-b]pyrazin-7-yl)phenyl]-(4-methylpiperazin-1-yl)methanone] returned a melting point of 180 to 181 °C. In addition, in series [1], the IC50 is 10 to 100 µM. For the same molecule, the IC50 in series [2] is 1 to 10 µM.
Molecule `O=C(c1ccc(-c2cnc3c(c2)N(Cc2ccccc2)CCN3)cc1)N1CCC(N2CCCC2)CC1` [Example 39, [4-(1-Benzyl-1,2,3,4-tetrahydropyrido[2,3-b]pyrazin-7-yl)phenyl]-(4-(pyrrolidin-1-yl)piperidin-1-yl)methanone] showed a melting point of 120 °C. In series [1], the IC50 is 10 to 100 µM. Besides, the IC50 in series [2] is 1 to 10 µM.
As to `Ic1cnc2c(c1)NCCN2` [Example 40, 7-Iodo-1,2,3,4-tetrahydropyrido[2,3-b]pyrazine], the melting point was 126 to 128 °C. In addition, the IC50 in series [1] is > 100 µM. In addition, the IC50 in series [2] is > 100 µM.
For the molecule `O=C(c1ccccc1)N1CCNc2ncccc21` [Example 41, (3,4-Dihydro-2H-pyrido[2,3-b]pyrazin-1-yl)phenylmethanone], the melting point lay within 166 to 168 °C. Further, the IC50 in series [1] is > 100 µM. Further, the IC50 in series [2] is > 100 µM.
In turn, `O=C(c1ccccc1)N1CCNc2ncc(I)cc21` [Example 42, (7-Iodo-3,4-dihydro-2H-pyrido[2,3-b]pyrazin-1-yl)phenylmethanone] registered a melting point of 164 to 166 °C. Further, the IC50 in series [1] was > 100 µM. In series [2], the IC50 is > 100 µM.
`O=C(c1ccccc1)N1CCNc2ncc(-c3cccnc3)cc21` [Example 43, Phenyl-(7-pyridin-3-yl-3,4-dihydro-2H-pyrido[2,3-b]pyrazin-1-yl)methanone]: the melting point is 219 to 220 °C. Besides, the concentration for half-maximal inhibition (IC50) in series [1] was 10 to 100 µM. Moreover, the half-maximal inhibitory concentration (IC50) in series [2] was > 100 µM.
`CCOC(=O)c1ccc(-c2cnc3c(c2)N(C(=O)c2ccccc2)CCN3)cc1` [Example 44, 4-(1-Benzoyl-1,2,3,4-tetrahydropyrido[2,3-b]pyrazin-7-yl)benzoic acid ethyl ester] showed a melting point of 177 to 178 °C. Besides, the IC50 in series [1] fell in the range of 10 to 100 µM. Also, the IC50 in series [2] was > 100 µM.
`O=C1CNc2ncc(-c3ccc(NS(=O)(=O)CCN4CCOCC4)cc3)cc2N1Cc1cc(F)ccc1F` [Example 50, 2-Morpholin-4-yl-ethanesulfonic acid{4-[1-(2,5-difluorobenzyl)-2-oxo-1,2,3,4-tetrahydropyrido[2,3-b]pyrazin-7-yl]phenyl}-amide] gave a melting point of 225 °C. For the same molecule, the IC50 in series [1] was > 100 µM. For the same molecule, the IC50 in series [2] fell in the range of 0.1 to 1 µM.
For `CN(C)CCNC(=O)c1ccc(-c2cnc3c(c2)N(C(=O)c2ccccc2)CCN3)cc1` [Example 52, 4-(1-Benzoyl-1,2,3,4-tetrahydropyrido[2,3-b]pyrazin-7-yl)-N-(2-dimethylamino-ethyl)benzamide] the same measures were 145 to 147 °C, 10 to 100 µM and 10 to 100 µM.
As to `CN(C)CCCNC(=O)c1ccc(-c2cnc3c(c2)N(C(=O)c2ccccc2)CCN3)cc1` [Example 53, 4-(1-Benzoyl-1,2,3,4-tetrahydropyrido[2,3-b]pyrazin-7-yl)-N-(3-dimethylamino-propyl)benzamide], the melting point is 94 °C. Also, the concentration for half-maximal inhibition (IC50) in series [1] fell in the range of 10 to 100 µM. The IC50 in series [2] is > 100 µM.
For `CCOC(=O)c1ccc(-c2cnc3c(c2)N(Cc2cc(F)ccc2F)C(=O)CN3)cc1` [Example 55, 4-[1-(2,5-Difluorobenzyl)-2-oxo-1,2,3,4-tetrahydropyrido[2,3-b]pyrazin-7-yl]benzoic acid ethyl ester], the melting point is 201 to 203 °C. In addition, the IC50 in series [1] is > 100 µM. Also, in series [2], the IC50 was 10 to 100 µM.
